Assay results: PubChem BioAssay AID449750 (Broad Institute, 2010)
The source made the active and inactive calls. No rule for the calls is given here.

assay: non-covalent RecA intein splicing inhibitors, dose response, biochemical, cell-free, fluorescence, secondary screen (AID 449750)

Compound | AC50
CC1(C)CC(CCNC(=O)CCl)(c2ccccc2)CCO1 (configuration not stated) | 21.3 µM
CC[n+]1ccc2cc(OC)c(OC)cc2c1Cc1ccc(OC)c(OC)c1 | > 38 µM (inactive)
CCCSc1nnc(Sc2nnnn2-c2ccccc2)s1 | 14.2 µM
CC(=O)Nc1ccc(NC(=O)c2nc(S(=O)(=O)Cc3cccc(C)c3)ncc2Cl)cc1 | > 38 µM (inactive)
CCOc1ccc(S(=O)(=O)NCc2cccnc2)cc1C | > 38 µM (inactive)
COC(=O)/C(=C1/Oc2cc(C)oc(=O)c2S1)C(F)(F)F | > 38 µM (inactive)
[O-][N+]1=c2ccc(Nc3ccccc3)cc2=NC12CCCCC2 | 16.7 µM
CCOC(=O)c1nc(C)n(-c2ccc(Cl)cc2)n1 | > 38 µM (inactive)
O=C(Nc1ccc(N2CCOCC2)cc1)Nc1ccc2nsnc2c1 | > 38 µM (inactive)
Cc1[nH][nH]c(=O)c1C(c1ccc(-c2cccc(Cl)c2)o1)c1c(C)[nH][nH]c1=O | > 38 µM (inactive)
O=C(CCCN1C(=O)/C(=C/c2cccs2)SC1=S)Nc1ccc(O)cc1 | > 38 µM (inactive)
CCCc1noc2c1C(c1ccoc1)C(C#N)=C(N)N2 (configuration not stated) | > 38 µM (inactive)
COc1c(O)ccc2c1CN1CCc3cc4c(cc3C1C2)OCO4 (configuration not stated) | > 38 µM (inactive)
CN1CCc2nc(SCC(=O)Nc3ccc(F)cc3)c(C#N)cc2C1 | > 38 µM (inactive)
NNc1n[nH]c(=S)n1N | 32.3 µM
O=C1C=Cc2ccccc2C1=O | 14.9 µM
CC1=C(C)/C(=N/OC(=O)c2cccc([N+](=O)[O-])c2)C=CC1=O | > 38 µM (inactive)
O=C(CCl)N1CCN2C(=O)c3ccccc3C12c1ccc(Cl)cc1 (configuration not stated) | 7.81 µM
Cc1noc(C)c1CSCC(=O)Oc1ccc(N(C)S(=O)(=O)c2ccccc2)cc1 | > 38 µM (inactive)
C/C(=C\c1ccco1)C1C(C#N)=C(N)Oc2n[nH]c(-c3ccccc3)c21 (configuration not stated) | 20.8 µM
COc1cc(/C=C(\C#N)C(=O)Nc2ccc3c(c2)OCCO3)ccc1O | > 38 µM (inactive)
COc1ccc2c(c1)C(=C(C#N)C#N)C(=O)N2CCc1ccccc1 | > 38 µM (inactive)
CN1C(=O)C(Cc2ccc3c(c2)OCO3)C(=O)N(C)C1=O | > 38 µM (inactive)
O=C(NCc1ccc2c(c1)OCO2)c1nc(S(=O)(=O)Cc2ccccc2F)ncc1Cl | > 38 µM (inactive)
CC1=NN(c2ccccc2)C(=O)/C1=C\c1cn(CCC#N)nc1-c1ccc(Cl)cc1 | > 38 µM (inactive)
Cc1cccc(CN2CCN(C(=O)CCl)CC2)c1 | 34.1 µM

Compound | AC50
Cc1ccccc1CS(=O)(=O)c1nnc([C@H](CC(C)C)NC(=O)OC(C)(C)C)o1 | > 38 µM (inactive)
O=C(CCl)N1N=C(c2ccco2)CC1c1cccs1 (configuration not stated) | 6.09 µM
Cc1cc(C(c2ccc(O)cc2)c2cc(C)c(O)cc2C)c(C)cc1O | 4.95 µM
COc1cccc(N(C(=O)CCl)C(C(=O)NCCc2ccccc2)c2cccs2)c1 (configuration not stated) | 1.29 µM
Cn1c(-c2ccccc2)c(C(=O)CCl)c2ccccc21 | 22.9 µM
N#CCCN(C(=O)CCl)c1cccc(Cl)c1 | 38.9 µM
CC1CC(C)CN(C(=O)c2ccc3c(c2)N(Cc2ccccc2)CCS3)C1 (configuration not stated) | 14 µM
O=C(NC1C(=O)NNC1c1ccccc1)c1ccccc1 (configuration not stated) | > 38 µM (inactive)
CCCCn1c(N)c(C(=O)NCc2cccs2)c2nc3ccccc3nc21 | > 38 µM (inactive)
COc1ccc(CNC(=O)c2c(C)oc3c2C(=O)c2ccccc2C3=O)cc1 | 14.3 µM
Cc1ccc(NC2=C(N3CCCCC3)C(=O)c3ccccc3C2=O)cc1 | 8.12 µM
Cc1nnc(NC(=O)c2nc(S(=O)(=O)Cc3ccccc3)ncc2Cl)s1 | 26.5 µM
CC(C)Cn1c(C(C)C)nc([N+](=O)[O-])c1S(=O)(=O)c1ccc(F)cc1 | > 38 µM (inactive)
C=CCOc1ccccc1CN(C(=O)CCl)c1ccc2c(c1)OCO2 | 1.28 µM
O=C(Nc1ccc(F)cc1)c1nn(-c2ccccc2)c(=O)cc1Cl | 22.1 µM
CCC(C)[C@H](NC(=O)NC1CCN(Cc2ccccc2)CC1)C(=O)OC (some centres not stated) | 5.82 µM
O=c1cc(-c2ccccc2)[nH][nH]1 | 12.8 µM
CCN(CC)C(=O)CSc1nnc2nnc3cc(OC)ccc3n12 | > 38 µM (inactive)
O=S(=O)(CCSc1nc2ccccc2s1)c1nc2ccccc2s1 | 27.3 µM
O=C1c2[nH]nc(-c3ccccc3O)c2C(c2cccc(Cl)c2)N1Cc1ccco1 (configuration not stated) | > 38 µM (inactive)
OCCN(CCO)c1ccc(C(c2ccccc2Cl)c2ccc(N(CCO)CCO)cc2Cl)c(Cl)c1 | 4.12 µM
CCOc1ccc2c(c1)C(NC(C)=O)C(=O)N2CCN1CCOCC1 (configuration not stated) | 34.2 µM
CCc1ccc(OCC(=O)N/N=C2\CC(=O)c3ccccc32)cc1 | 26.8 µM
CC1=NN(c2ccc(Cl)c(C(=O)O)c2)C(=O)/C1=C\c1ccc(-c2ccc(C(=O)O)cc2)o1 | 34.1 µM
O=C1C(Cl)=C(NCC2CCCO2)C(=O)N1c1ccccc1 (configuration not stated) | > 38 µM (inactive)
COc1ccc(C(C(=O)NC2CCCCC2)N(C(=O)CCl)c2cccc(Cl)c2)cc1 (configuration not stated) | 0.577 µM

Compound | AC50
Cc1ccccc1CS(=O)(=O)c1ncc(Cl)c(C(=O)Nc2ccc(F)cc2)n1 | > 38 µM (inactive)
CNC(=O)c1nnsc1S(=O)c1ccc(Cl)cc1 (configuration not stated) | > 38 µM (inactive)
COc1ccccc1-c1c(C)oc2cc(OC(=O)c3ccco3)ccc2c1=O | > 38 µM (inactive)
CCCCCCCCCCC[N+](C)(C)CC/C=C1/c2ccccc2Sc2ccc(Cl)cc21 | 4.77 µM
O=C(NCc1cccnc1)/C(=C\c1ccc(-c2cccc(Cl)c2)o1)S(=O)(=O)c1ccccc1 | 26.9 µM
CCN(CC)S(=O)(=O)c1ccc(N2CCN(S(=O)(=O)c3ccccc3C#N)CC2)nc1 | > 38 µM (inactive)
CCCCCCN(C(=O)CCl)c1ccccc1 | 3.5 µM
C/C(CC(=O)Nc1ccccn1)=N\NC(=O)Cc1cccc2ccccc12 | 25.6 µM
CCc1ccc(/C=C/C(=O)C2C(=O)c3ccccc3C2=O)cc1 | 7.06 µM
Cn1cnc([N+](=O)[O-])c1Oc1cccc2ccccc12 | > 38 µM (inactive)
CCOC(=O)C(Nc1ccc2ccccc2c1)C(=O)OCC | 38.5 µM
O=C1/C(=N\S(=O)(=O)c2cccs2)C([n+]2ccccc2)=C([O-])c2ccccc21 | 7.78 µM
COc1ccc(C(=O)c2c(C(F)(F)F)oc3c2C(=O)c2ccccc2C3=O)cc1OC | > 38 µM (inactive)
COc1ccccc1/C=C1/C(=O)N(c2ccccc2)N=C1C | > 38 µM (inactive)
COc1ccc2noc3c2c1C(=O)c1ccccc1-3 | 24.8 µM
O=[N+]([O-])c1cccc2c([As](=O)(O)O)cccc12 | > 38 µM (inactive)
Cc1[nH]n(-c2ccccc2)c(=O)c1/C=N/NC(=O)c1ccc(O)cc1O | > 38 µM (inactive)
COc1ccc(-c2cc(=O)[nH][nH]2)cc1OC | 4.35 µM
O=C(N/N=C/c1c(O)n(C2CCCCC2)c(=S)[nH]c1=O)c1ccccc1O | 4.36 µM
Cc1nc2c(-c3ccc(F)cc3)c(C)[nH]n2c(=O)c1Cl | > 38 µM (inactive)
Cc1c(C)n(O)c2ccc3nonc3c12 | 26.8 µM
Cc1ccc(NC(=O)C(CC(C)C)NC(N)=O)cc1 (configuration not stated) | > 38 µM (inactive)
COc1cc(/C=C2/C(=O)N(c3ccc([N+](=O)[O-])cc3)N=C2N2CCOCC2)ccc1O | 31.5 µM
Cc1ccc(S(=O)(=O)Nc2ccc(O)c3ccccc23)c(C)c1 | 0.409 µM
Cc1cc2[nH]ncc2cc1NC(=S)NC(=O)c1ccccc1 | > 38 µM (inactive)
